For 19 molecules, T/C results are on record in PubChem BioAssay AID330 (DTP/NCI, 2004).

Values joined by “and” are separate entries in the source; they are usually repeats but may differ in a detail not shown here. Identical values can stand only once. Inconclusive results and toxic doses are left out. Square brackets hold non-standard residues; d marks the D form. Peptide text beside a SMILES is read from it. ξ: configuration not given here. ξP = O=C(O)C1CCCN1

The subject of this assay is P388 leukemia ip, CD2F1 mice, survival T/C. As to the kind of experiment: NCI In Vivo Anticancer Drug Screen. Data for tumor model P388 Leukemia (intraperitoneal) in CD2F1 (CDF1) mice. Particulars: endpoint: median survival time, higher = longer survival. Put shortly: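 Mice carrying the transplanted tumor received test compound or vehicle. Survival was recorded in each group, and the value is the treated-group measurement divided by that of the vehicle-treated control group.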

The mark [1] stands for this setting: dose: 60.0 mg/kg/injection, schedule: Q01DX005 (ip), vehicle: saline with Tween-80.
Where [2] appears, read: dose: 120.0 mg/kg/injection, schedule: Q01DX005 (ip), vehicle: saline with Tween-80.
Where [3] appears, read: dose: 240.0 mg/kg/injection, schedule: Q01DX005 (ip), vehicle: saline with Tween-80.
The mark [4] stands for this setting: dose: 50.0 mg/kg/injection, schedule: Q01DX009 (ip), vehicle: Klucel (hydroxypropylcellulose) (HPC).
Where [5] appears, read: dose: 100.0 mg/kg/injection, schedule: Q01DX009 (ip), vehicle: Klucel (hydroxypropylcellulose) (HPC).
The mark [6] stands for this setting: dose: 200.0 mg/kg/injection, schedule: Q01DX009 (ip), vehicle: Klucel (hydroxypropylcellulose) (HPC).
The mark [7] stands for this setting: dose: 3.0 mg/kg/injection, schedule: Q01DX009 (ip), vehicle: saline with Tween-80.

Regarding `CCOC(=O)c1c(C)c2c(n1C)CCc1sc(N)nc1-2`, the T/C runs as follows: (dose: 50.0 mg/kg/injection, schedule: Q04DX003 (ip), vehicle: Klucel (hydroxypropylcellulose) (HPC)) 100 % of control; (dose: 100.0 mg/kg/injection, schedule: Q04DX003 (ip), vehicle: Klucel (hydroxypropylcellulose) (HPC)) 101 % of control; (dose: 200.0 mg/kg/injection, schedule: Q04DX003 (ip), vehicle: Klucel (hydroxypropylcellulose) (HPC)) 94 % of control.

With `CCCCCCCCCCC1SCC(=O)N1c1nncs1` (centres undefined), the T/C is 102 % of control under setting [1], 97 % of control under setting [2] and 94 % of control under setting [3].

As for `O=C1C=Cc2ccccc2C1=C1SCCS1`, the T/C under setting [4] was 103 % of control, the T/C under setting [5] was 93 % of control and the T/C under setting [6] was 90 % of control.

Consider `Brc1ccccc1C(Nc1nncs1)Nc1nncs1`, for which the T/C under setting [1] is 117 % of control and 123 % of control; the T/C under setting [3] was 154 % of control and 156 % of control; the T/C (dose: 480.0 mg/kg/injection, schedule: Q01DX005 (ip), vehicle: saline with Tween-80) is 169 % of control.

As to `Cc1c(Cl)cccc1Nc1ncccc1C(=O)O`, the T/C by setting is: (dose: 50.0 mg/kg/injection, schedule: Q01DX005 (ip), vehicle: saline with Tween-80) 95 % of control; (dose: 100.0 mg/kg/injection, schedule: Q01DX005 (ip), vehicle: saline with Tween-80) 105 % of control.

For the molecule `CCOC(=O)CNC(=O)Oc1ccc(Cl)cn1`, the T/C under setting [4] is 102 % of control, the T/C under setting [5] is 97 % of control and the T/C under setting [6] is 102 % of control.

For `COc1ccc(C2C3CCCC(C(c4ccc(OC)cc4)N2C)C32NC(=O)NC2=O)cc1` (centres undefined), the T/C was 90 % of control under setting [1], 90 % of control under setting [2] and 91 % of control under setting [3].

As to `C[CH2][Ge]([CH2]C)[CH2]C(=O)OC.C[CH2][Ge]([CH2]C)[CH2]C(=O)OC`, the T/C by setting is: (dose: 50.0 mg/kg/injection, schedule: Q01DX005 (ip), vehicle: Klucel (hydroxypropylcellulose) (HPC)) 100 % of control; (dose: 100.0 mg/kg/injection, schedule: Q01DX005 (ip), vehicle: Klucel (hydroxypropylcellulose) (HPC)) 100 % of control; (dose: 200.0 mg/kg/injection, schedule: Q01DX005 (ip), vehicle: Klucel (hydroxypropylcellulose) (HPC)) 101 % of control.

With `C(=N\Nc1nnc2c(n1)[nH]c1ccccc12)/c1cccnc1`, the T/C was 106 % of control (dose: 12.5 mg/kg/injection, schedule: Q01DX005 (ip), vehicle: Klucel + Tween-80); 91 % of control (dose: 25.0 mg/kg/injection, schedule: Q01DX005 (ip), vehicle: Klucel + Tween-80); 87 % of control (dose: 50.0 mg/kg/injection, schedule: Q01DX005 (ip), vehicle: Klucel + Tween-80).

`CC(C)=CCC1=C(OC2OC(CO)C(O)C(O)C2O)C(=O)c2ccccc2C1=O` (centres undefined): the T/C by setting is: (dose: 6.25 mg/kg/injection, schedule: Q01DX009 (ip), vehicle: saline with Tween-80) 121 % of control; (dose: 12.5 mg/kg/injection, schedule: Q01DX009 (ip), vehicle: saline with Tween-80) 118 % of control; (dose: 25.0 mg/kg/injection, schedule: Q01DX009 (ip), vehicle: saline with Tween-80) 114 % of control.

As for `COc1ccc([I+]c2ccc(OC)cc2)cc1`, the T/C is 104 % of control under setting [7] and 120 % of control (dose: 6.0 mg/kg/injection, schedule: Q01DX009 (ip), vehicle: saline with Tween-80).

On to `CCC(C)c1cc(/C=C2/OC(=O)c3ccccc32)cc(C(C)CC)c1O` (centres undefined), for which the T/C runs as follows: (dose: 100.0 mg/kg/injection, schedule: Q04DX002 (ip), vehicle: saline) 100 % of control; (dose: 200.0 mg/kg/injection, schedule: Q04DX002 (ip), vehicle: saline) 99 % of control; (dose: 400.0 mg/kg/injection, schedule: Q04DX002 (ip), vehicle: saline) 93 % of control.

As to `Cc1c2cnccc2c(C)c2c1c1ccccc1n2CCOC(=O)c1ccccc1`, the T/C (dose: 100.0 mg/kg/injection, schedule: Q04DX003 (ip), vehicle: saline with Tween-80) was 95 % of control; the T/C (dose: 200.0 mg/kg/injection, schedule: Q04DX003 (ip), vehicle: saline with Tween-80) was 86 % of control; the T/C (dose: 400.0 mg/kg/injection, schedule: Q04DX003 (ip), vehicle: saline with Tween-80) is 86 % of control.

In the case of `COC(=O)C(CC(C)C)NC(=O)C(Cc1c[nH]c2ccccc12)NC(=O)OC(C)(C)C` (centres undefined), the T/C by setting is: (dose: 10.7 mg/kg/injection, schedule: Q01DX009 (ip), vehicle: other) 100 % of control; (dose: 21.3 mg/kg/injection, schedule: Q01DX009 (ip), vehicle: other) 93 % of control; (dose: 42.5 mg/kg/injection, schedule: Q01DX009 (ip), vehicle: other) 93 % of control; (dose: 85.0 mg/kg/injection, schedule: Q01DX009 (ip), vehicle: other) 93 % of control; (dose: 170.0 mg/kg/injection, schedule: Q01DX009 (ip), vehicle: other) 98 % of control.

`O=S(=O)(O)O.[W]`: the T/C is 91 % of control (dose: 0.38 mg/kg/injection, schedule: Q01DX009 (ip), vehicle: saline with Tween-80); 99 % of control (dose: 0.38 mg/kg/injection, schedule: Q01DX009 (ip), vehicle: saline); 89 % of control and 96 % of control (dose: 0.75 mg/kg/injection, schedule: Q01DX009 (ip), vehicle: saline); 100 % of control (dose: 1.5 mg/kg/injection, schedule: Q01DX009 (ip), vehicle: saline with Tween-80); 98 % of control and 86 % of control (dose: 1.5 mg/kg/injection, schedule: Q01DX009 (ip), vehicle: saline); 87 % of control under setting [7]. Where the note is “dose: 3.0 mg/kg/injection, schedule: Q01DX009 (ip), vehicle: saline”, the T/C was 89 % of control and 94 % of control.

Regarding `O=C(O)c1cc(Br)no1`, the T/C was 95 % of control (dose: 50.0 mg/kg/injection, schedule: Q01DX009 (ip), vehicle: saline); 90 % of control (dose: 100.0 mg/kg/injection, schedule: Q01DX009 (ip), vehicle: saline); 89 % of control (dose: 200.0 mg/kg/injection, schedule: Q01DX009 (ip), vehicle: saline).

For the molecule `COc1ccc2c(c1)c(=O)c(C(=O)O)cn2CCCOc1ccc([N+](=O)[O-])cc1`, the T/C is 88 % of control (dose: 60.0 mg/kg/injection, schedule: Q01DX005 (ip), vehicle: Klucel (hydroxypropylcellulose) (HPC)); 93 % of control (dose: 120.0 mg/kg/injection, schedule: Q01DX005 (ip), vehicle: Klucel (hydroxypropylcellulose) (HPC)); 89 % of control (dose: 240.0 mg/kg/injection, schedule: Q01DX005 (ip), vehicle: Klucel (hydroxypropylcellulose) (HPC)).

`NCC(=O)N1CCCC1C(=O)NCC(=O)NCC(=O)O` (centres undefined) (H-G[ξP]GG-OH): the T/C is 101 % of control (dose: 50.0 mg/kg/injection, schedule: Q01DX005 (ip), vehicle: saline); 107 % of control (dose: 100.0 mg/kg/injection, schedule: Q01DX005 (ip), vehicle: saline); 105 % of control (dose: 100.0 mg/kg/injection, schedule: Q01DX005 (ip), vehicle: water); 99 % of control (dose: 200.0 mg/kg/injection, schedule: Q01DX005 (ip), vehicle: saline); 107 % of control (dose: 200.0 mg/kg/injection, schedule: Q01DX005 (ip), vehicle: water); 110 % of control (dose: 400.0 mg/kg/injection, schedule: Q01DX005 (ip), vehicle: water).

For `O=C([O-])C(=O)[N-]CCC[N-]C(=O)C(=O)[N-]CCC[N-]C(=O)C(=O)[O-].[Cu+2].[Cu+2].[Na+]`, the T/C is 103 % of control (dose: 3.75 mg/kg/injection, schedule: Q01DX005 (ip), vehicle: saline with Tween-80); 104 % of control (dose: 7.5 mg/kg/injection, schedule: Q01DX005 (ip), vehicle: saline with Tween-80); 101 % of control (dose: 15.0 mg/kg/injection, schedule: Q01DX005 (ip), vehicle: saline with Tween-80).
